Data set [1] concerns the target T1, Amine oxidase [flavin-containing] B (Homo sapiens, UniProt P27338).
T1 sequence (P27338 whole entry): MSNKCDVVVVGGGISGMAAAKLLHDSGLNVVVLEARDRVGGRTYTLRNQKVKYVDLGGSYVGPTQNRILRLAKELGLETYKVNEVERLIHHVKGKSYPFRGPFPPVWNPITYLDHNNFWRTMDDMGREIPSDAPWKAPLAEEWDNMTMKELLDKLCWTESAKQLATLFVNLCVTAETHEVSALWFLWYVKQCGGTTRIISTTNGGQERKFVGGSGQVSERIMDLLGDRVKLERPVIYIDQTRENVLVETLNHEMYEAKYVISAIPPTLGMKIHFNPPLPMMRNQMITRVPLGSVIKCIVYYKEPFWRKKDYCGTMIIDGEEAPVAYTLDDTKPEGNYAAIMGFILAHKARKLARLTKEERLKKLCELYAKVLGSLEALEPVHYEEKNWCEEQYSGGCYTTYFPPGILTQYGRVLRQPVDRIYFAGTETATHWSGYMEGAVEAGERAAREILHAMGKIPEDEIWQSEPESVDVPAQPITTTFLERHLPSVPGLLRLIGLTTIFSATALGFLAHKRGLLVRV
Description: Inhibition of human MAO-B using kynuramine as substrate incubated for 20 mins by fluorescence based assay relative to control.

Data set [2] is filed under the species Homo sapiens. Kind of data set: Selectivity index, ratio of IC50 for human MAO-A to IC50 for human MAO-B by fluorescence based assay.
The target of data set [3] is T2, Amine oxidase [flavin-containing] A (Homo sapiens, UniProt P21397).
T2 sequence (P21397 whole entry): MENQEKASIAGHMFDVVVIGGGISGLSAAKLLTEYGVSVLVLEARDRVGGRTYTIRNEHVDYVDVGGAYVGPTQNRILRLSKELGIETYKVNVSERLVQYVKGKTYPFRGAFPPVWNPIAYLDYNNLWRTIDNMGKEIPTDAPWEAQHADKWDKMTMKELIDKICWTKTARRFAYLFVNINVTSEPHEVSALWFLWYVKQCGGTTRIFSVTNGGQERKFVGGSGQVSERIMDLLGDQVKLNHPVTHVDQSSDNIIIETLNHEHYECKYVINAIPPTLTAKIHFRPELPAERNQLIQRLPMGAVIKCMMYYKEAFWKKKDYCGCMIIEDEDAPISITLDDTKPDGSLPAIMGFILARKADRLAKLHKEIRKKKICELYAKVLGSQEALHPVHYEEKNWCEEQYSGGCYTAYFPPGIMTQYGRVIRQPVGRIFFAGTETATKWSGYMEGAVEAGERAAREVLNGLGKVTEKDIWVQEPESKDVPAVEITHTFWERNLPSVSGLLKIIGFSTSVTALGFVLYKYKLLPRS
Kind of data set: Inhibition of human MAO-A using kynuramine as substrate incubated for 20 mins by fluorescence based assay relative to control.

In data set [4] the target is T1, Amine oxidase [flavin-containing] B. Description: Binding affinity to human MAO-B using p-tyramine as substrate incubated for 15 mins by amplex red dye based microplate assay.
The species entered for data set [5] is Homo sapiens. Kind of data set: Selectivity index, ratio of IC50 for human MAO-A to IC50 for human MAO-B.
Data set [6] addresses T1, Amine oxidase [flavin-containing] B. Kind of data set: Binding affinity to human MAO-B using kynuramine as substrate incubated for 30 mins by absorbance based assay.
For data set [7], the target named is T2, Amine oxidase [flavin-containing] A. Kind of data set: Inhibition of human MAO-A using kynuramine as substrate incubated for 10 mins by continuous spectrophotometric method.
In data set [8] the target is T1, Amine oxidase [flavin-containing] B. Kind of data set: Inhibition of human MAO-B using benzylamine as substrate.
Data set [9] has the same target. Description: Inhibition of human MAO-B using kynuramine as substrate incubated for 30 mins by fluorescence based assay. The following applies: 0.5 h.
Data set [10] shares this target. Description: Inhibition of human MAO-B using p-tyramine as substrate by fluorimetric based assay.
The target is the same in data set [11]. Description: Inhibition of human MAO-B.

As a reminder, the IC50 is the concentration at which inhibition is half-maximal. A higher IC50 goes with a need for much substance. With `COc1cc(O)ccc1C(=O)/C=C/c1ccc(O)cc1`, the 50% inhibitory concentration (IC50) in data set [1] was 380 nM; in data set [3] it was 10.1 µM. In the data set filed under Homo sapiens [2], the Ratio IC50 is 9.9. `COc1cc(O)c(C(=O)/C=C/c2ccccc2O)c(OC)c1`: the IC50 in data set [1] worked out at 2710 nM; in data set [3], 0.39 µM. Also, the Ratio IC50 in the data set filed under Homo sapiens [2] worked out at 0.14.

Broadly, the Ki is a measure of affinity in units of concentration, obtained from inhibition or displacement. A low value points to tighter binding. In data set [4], `O=C(/C=C/c1ccc(Br)cc1)c1c[nH]c2ccccc12` yielded a Ki of 10 nM. Also, the Ratio IC50 in the data set listed under Homo sapiens [5] is 120. As for `O=C(/C=C/c1ccc(O)c(O)c1O)c1ccco1`, affinity in data set [6] was put at a Ki of 3550 nM. `CC(C)=CCC/C(C)=C/Cc1c(O)ccc(C(=O)/C=C/c2ccc(O)cc2)c1O` [XANTHOANGELOL]: the IC50 was 13200 nM in [1] and more than 40 µM in data set [3]. Also, in the data set filed under Homo sapiens [2], the Ratio IC50 was more than 3.03. Consider `O=C(/C=C/C=C/c1ccccc1)c1ccco1`, for which, in data set [4], affinity was put at a Ki of 4.1 nM. Moreover, the Ratio IC50 in the data set filed under Homo sapiens [5] was determined as 172.

For `CC/C(C)=N/Oc1ccc(C(=O)/C=C/c2ccccc2)cc1`, the IC50 was more than 10 µM in data set [7] and 86 nM in data set [8]. In addition, the Ratio IC50 in the data set filed under Homo sapiens [5] was more than 120. For the molecule `COC(=O)c1ccc(/C=C/C(=O)c2ccco2)cc1`, in data set [6], the inhibition constant Ki came out at 300 nM. `CC(C)=CCc1cc(C(=O)/C=C/c2ccc(O)c(O)c2)c(O)cc1O` [BROUSSOCHALCONE A]: the IC50 in [1] is 7020 nM; in data set [3] it was 0.72 µM. Also, in the data set listed under Homo sapiens [2], the Ratio IC50 was found to be 0.1. For the molecule `COc1ccc(C(=O)/C=C/c2ccc(N(C)C)cc2)cc1`, the “inhibition (INH)” value in data set [9] is recorded as less than 75%.

Molecule `COc1cc2c(Nc3ccc(C(=O)/C=C/c4nc(C)c(C)nc4C)cc3)ncnc2c(OC)c1OC` yielded an IC50 in data set [10] of 2600 nM. As to `COc1ccc(C(=O)/C=C/c2ccc(O)cc2)c(O)c1CC=C(C)C`, the concentration for half-maximal inhibition (IC50) in data set [1] is 1390 nM; in [3], more than 40 µM. Besides, in the data set listed under Homo sapiens [2], the Ratio IC50 was more than 28.8.

For `O=C(/C=C/c1csc2ccccc12)c1ccco1`, in [4], affinity was put at a Ki of 72 nM. Moreover, the Ratio IC50 in the data set filed under Homo sapiens [5] was 12.6.

Turning to `O=C(/C=C/c1ccc(Cl)cc1Cl)c1ccco1`, the Ki in data set [6] was 850 nM. As to `O=C(/C=C/c1cccc2c1OCO2)c1cccc(Br)c1`, the concentration for half-maximal inhibition (IC50) in [11] is less than 100 nM.

Turning to `COc1ccc(/C=C/C(=O)c2ccc(Cl)cc2)cc1`, in data set [9], the “inhibition (INH)” value is recorded as less than 75%.

(Values after ChEMBL document CHEMBL5230117, “Chalcones: Unearthing their therapeutic possibility as monoamine oxidase B inhibitors” (Eur J Med Chem, 2020).)
